Legend:
Assay type in all cases: binding
[1] = biological target: T1, Can f 1 (Canis lupus, UniProt O18873); test: ANS displacement assay; conditions: 2 uM ANS, 0.2 mg/ml protein, RT, 1 h; fatty acid 10 uM (Methods) or 1 uM (Figure 4 legend)
T1 construct: wild-type (C118S gene reverted to Cys118), signal peptide absent, borders aa 27-171 for the C118S crystal construct; 6His-GST tag cut with TEV; E. coli BL21(DE3)

[2] = biological target: T2, Fel d 7 (Felis catus, UniProt E5D2Z5); test: ANS displacement assay; conditions: 2 uM ANS, 0.2 mg/ml protein, RT, 1 h; fatty acid 10 uM (Methods) or 1 uM (Figure 4 legend)
T2 construct: wild-type, signal peptide absent, aa 27-170 for the crystal construct; GST tag cut with TEV; E. coli BL21(DE3)
T2 sequence (E5D2Z5 27-170): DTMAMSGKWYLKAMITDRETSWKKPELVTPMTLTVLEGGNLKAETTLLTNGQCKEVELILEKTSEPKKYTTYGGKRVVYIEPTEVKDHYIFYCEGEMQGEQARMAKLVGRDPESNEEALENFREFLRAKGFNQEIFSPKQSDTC

[3] = biological target: T1, Can f 1; test: […]-methyl HSQC NMR stoichiometry; conditions: labelled compound (methyl-13C-oleate); annealed at 80°C, excess lipid removed, PBS; cholate extraction
[4] = biological target: T2, Fel d 7; test: […]-methyl HSQC NMR stoichiometry; conditions: labelled compound (methyl-13C-oleate); annealed at 80°C, excess lipid removed, PBS; cholate extraction

T1 sequence (O18873 27-171): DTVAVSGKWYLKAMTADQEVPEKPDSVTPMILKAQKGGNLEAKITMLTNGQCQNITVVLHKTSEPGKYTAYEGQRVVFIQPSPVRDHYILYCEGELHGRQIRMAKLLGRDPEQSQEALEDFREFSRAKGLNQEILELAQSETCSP

| % fluorescence reduction [1] | % fluorescence reduction [2] | stoichiometry (oleate:protein) [3] | stoichiometry (oleate:protein) [4] | Structure (SMILES) |
| --- | --- | --- | --- | --- |
| > 50% | > 50% |  |  | CCCCC/C=C\C/C=C\CCCCCCCC(=O)NCC(=O)O [D10, Linoleoyl glycine] |
|  |  | 2:1 | 2:1 | CCCCCCCC/C=C\CCCCCCCC(=O)O [oleic acid] |
| > 50% | > 50% |  |  | CCCCCCCC/C=C\CCCCCCCC(=O)N[C@@H](CO)C(=O)O [A4, N-Oleoyl-L-serine] |
| > 50% | > 50% |  |  | CC/C=C\C/C=C\C/C=C\CCCCCCCC(=O)N[C@@H](Cc1ccc(O)cc1)C(=O)O [A2, N-(α-Linolenoyl) tyrosine] |
